# Laboratory results published in patent US6596709B1, “6-sulphanoyl-3-quinolylphosphonic acid compounds” (Les Laboratoires Servier, priority 2000, dated 2003).
# Where two headings read alike, the source gives them in different places.
# Key:
# [1] = Nephrotoxicity of prior-art compounds of EP 0 640 612 found by the Applicant; type: in vivo; conditions: no method given
# [2] = Journal of Cerebral Blood Flow and Metabolism, 1994, 14, 251-261; cited from earlier work
SMILES,Nephrotoxicity [1],Nephrotoxicity [2]
"O=c1[nH]c2cc(Cl)c(Cl)cc2cc1P(=O)(O)O [(6,7-dichloro-2-oxo-1,2-dihydro-3-quinolyl)phosphonic acid]",serious problems of nephrotoxicity,–
"NS(=O)(=O)c1cccc2c3c(cc([N+](=O)[O-])c12)=NC(=O)C(=O)N=3 [NBQX, 6-nitro-7-sulphamoyl-benzo[f]quinoxaline-2,3-dione]",–,nephrotoxicity
